{"source": "patent US20160243146A1", "about": "“LEVIA : A New Injectable Parasiticidal Veterinary Formulation of Levamisole HCl and Ivermectin Solution” (priority 2015, published 2016)", "origin": "cited, not measured here", "key": {"[1]": {"conditions": "dissolved in propylene glycol solvent"}}}
{"substance": "Ivermectin", "values": [{"measurement": "solubility in water", "setting": "room temperature", "value": "about 0.005 mg per ml"}, {"measurement": "stability in water", "setting": "water", "value": "unstable in water"}, {"measurement": "period of release into the blood", "setting": "[1]", "value": "up to 14 days"}]}
